The values below come from ChEMBL document CHEMBL4732123, “Discovery of 7-aminophenanthridin-6-one as a new scaffold for matrix metalloproteinase inhibitors with multitarget neuroprotective activity” (Eur J Med Chem, 2021).

Data set [1] concerns the target T1, Matrix metalloproteinase-9 (Homo sapiens, UniProt P14780). The data set can be described thus: Non-competitive inhibition of recombinant human MMP9 (107 to 449 residues) using Mca-Pro-Leu-Gly-Leu-Dpa-Ala-Arg-NH2 expressed in Escherichia coli expression system as substrate incubated for 15 mins followed by substrate addition and measured after 2 to 4 hrs by fluorescence based assay. The conditions noted are these: time 2-4.25 hrs.

Data set [2] concerns the target T2, Neutrophil collagenase (Homo sapiens, UniProt P22894). Briefly: Non-competitive inhibition of recombinant human MMP8 (99 to 269 residues) using Mca-Pro-Leu-Gly-Leu-Dpa-Ala-Arg-NH2 expressed in Escherichia coli expression system as substrate by substrate by fluorescence based Lineweaver-Burk plot. The conditions noted are these: time 2-4 hrs.
Target sequence in this assay (P22894 101-467 limits assumed): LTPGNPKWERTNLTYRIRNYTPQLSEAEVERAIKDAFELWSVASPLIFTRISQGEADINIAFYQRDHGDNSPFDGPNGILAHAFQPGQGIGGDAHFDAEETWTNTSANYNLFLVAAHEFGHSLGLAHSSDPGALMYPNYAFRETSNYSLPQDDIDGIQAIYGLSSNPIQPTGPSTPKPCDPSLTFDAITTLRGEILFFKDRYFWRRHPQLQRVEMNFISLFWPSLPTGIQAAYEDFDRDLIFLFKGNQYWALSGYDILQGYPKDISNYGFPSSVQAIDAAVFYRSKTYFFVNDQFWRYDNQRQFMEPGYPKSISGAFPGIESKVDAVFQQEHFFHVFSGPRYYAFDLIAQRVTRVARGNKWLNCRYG
Data set [3] concerns SN-56. The data set can be described thus: Neuroprotective activity against H2O2-induced cytotoxicity in mouse SN-56 cells assessed as increase in cell viability at 10 to 100 uM incubated for 24 hrs by MTT assay. The data set is classed as functional, cell-based. The conditions noted are these: dose 10-100 µM.
The target of data set [4] is T1, Matrix metalloproteinase-9. The data set can be described thus: Non-competitive inhibition of recombinant human MMP9 (107 to 449 residues) using Mca-Pro-Leu-Gly-Leu-Dpa-Ala-Arg-NH2 expressed in Escherichia coli expression system as substrate by substrate by fluorescence based Dixon plot. The conditions noted are these: time 2-4 hrs.
Data set [5] has as its target T1, Matrix metalloproteinase-9. Briefly: Non-competitive inhibition of recombinant human MMP9 (107 to 449 residues) using Mca-Pro-Leu-Gly-Leu-Dpa-Ala-Arg-NH2 expressed in Escherichia coli expression system as substrate by substrate by fluorescence based Lineweaver-Burk plot. The conditions noted are these: time 2-4 hrs.
The target of data set [6] is T3, 72 kDa type IV collagenase (Homo sapiens, UniProt P08253). Briefly: Non-competitive inhibition of recombinant human MMP2 (110 to 452 residues) using Mca-Pro-Leu-Gly-Leu-Dpa-Ala-Arg-NH2 expressed in yeast expression system as substrate by fluorescence based Michaelis-Menten analysis. As to conditions: time 2-4 hrs.
Target sequence in this assay (P08253 110-660 limits assumed): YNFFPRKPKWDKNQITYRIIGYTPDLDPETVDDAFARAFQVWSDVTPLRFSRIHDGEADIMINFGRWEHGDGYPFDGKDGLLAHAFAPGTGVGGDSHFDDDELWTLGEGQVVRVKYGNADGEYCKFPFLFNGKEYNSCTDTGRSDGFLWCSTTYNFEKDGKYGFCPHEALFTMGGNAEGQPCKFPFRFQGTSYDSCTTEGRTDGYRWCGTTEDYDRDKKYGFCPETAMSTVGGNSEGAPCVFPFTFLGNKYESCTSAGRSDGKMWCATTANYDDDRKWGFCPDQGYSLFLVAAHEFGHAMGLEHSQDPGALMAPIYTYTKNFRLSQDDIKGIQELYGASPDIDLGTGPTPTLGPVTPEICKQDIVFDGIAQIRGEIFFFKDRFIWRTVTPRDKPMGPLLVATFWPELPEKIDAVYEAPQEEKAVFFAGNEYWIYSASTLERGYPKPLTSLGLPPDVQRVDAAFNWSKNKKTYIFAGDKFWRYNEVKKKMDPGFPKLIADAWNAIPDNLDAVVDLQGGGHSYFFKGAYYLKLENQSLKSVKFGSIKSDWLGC
Data set [7] deals with T4, Collagenase 3 (Homo sapiens, UniProt P45452). Briefly: Non-competitive inhibition of recombinant human MMP13 (104 to 274 residues) using Mca-Pro-Leu-Gly-Leu-Dpa-Ala-Arg-NH2 expressed in Escherichia coli expression system as substrate by fluorescence based Lineweaver-Burk plot assay. As to conditions: time 2-4 hrs.
Data set [8] deals with T3, 72 kDa type IV collagenase. Briefly: Non-competitive inhibition of recombinant human MMP2 (110 to 452 residues) using Mca-Pro-Leu-Gly-Leu-Dpa-Ala-Arg-NH2 expressed in yeast expression system as substrate incubated for 15 mins followed by substrate addition and measured after 2 to 4 hrs by fluorescence based assay. The conditions noted are these: time 2-4.25 hrs.
Target sequence in this assay (P08253 110-660 limits assumed): as above
Data set [9] deals with T1, Matrix metalloproteinase-9. The data set can be described thus: Non-competitive inhibition of recombinant human MMP9 (107 to 449 residues) using Mca-Pro-Leu-Gly-Leu-Dpa-Ala-Arg-NH2 expressed in Escherichia coli expression system as substrate by substrate by fluorescence based Michaelis-Menten analysis. The conditions noted are these: time 2-4 hrs.
In data set [10] the test system is SN-56. The data set can be described thus: Neuroprotective activity against H2O2-induced lipid peroxidation in mouse SN-56 cells assessed as increase in MDA level incubated for 24 hrs by lipid peroxidation MDA assay kit method. The data set is classed as functional, cell-based.
Data set [11] concerns the target T3, 72 kDa type IV collagenase. Briefly: Non-competitive inhibition of recombinant human MMP2 (110 to 452 residues) using Mca-Pro-Leu-Gly-Leu-Dpa-Ala-Arg-NH2 expressed in yeast expression system as substrate by fluorescence based Dixon plot. The conditions noted are these: time 2-4 hrs.
Target sequence in this assay (P08253 110-660 limits assumed): as above
The target of data set [12] is T4, Collagenase 3. The data set can be described thus: Inhibition of recombinant human MMP13 (104 to 274 residues) using Mca-Pro-Leu-Gly-Leu-Dpa-Ala-Arg-NH2 expressed in Escherichia coli expression system as substrate incubated for 15 mins followed by substrate addition and measured after 2 to 4 hrs by fluorescence based assay.
Data set [13] deals with T2, Neutrophil collagenase. The data set can be described thus: Non-competitive inhibition of recombinant human MMP8 (99 to 269 residues) using Mca-Pro-Leu-Gly-Leu-Dpa-Ala-Arg-NH2 expressed in Escherichia coli expression system as substrate incubated for 15 mins followed by substrate addition and measured after 2 to 4 hrs by fluorescence based assay. The conditions noted are these: time 2-4.25 hrs.
Target sequence in this assay (P22894 101-467 limits assumed): as the sequence (P22894 101-467 limits assumed) above

Data set [14] concerns the target T3, 72 kDa type IV collagenase. The data set can be described thus: Non-competitive inhibition of recombinant human MMP2 (110 to 452 residues) using Mca-Pro-Leu-Gly-Leu-Dpa-Ala-Arg-NH2 expressed in yeast expression system as substrate by fluorescence based Lineweaver-Burk plot. The conditions noted are these: time 2-4 hrs.
Target sequence in this assay (P08253 110-660 limits assumed): as the sequence (P08253 110-660 limits assumed) above
In data set [15] the target is T2, Neutrophil collagenase. Briefly: Non-competitive inhibition of recombinant human MMP8 (99 to 269 residues) using Mca-Pro-Leu-Gly-Leu-Dpa-Ala-Arg-NH2 expressed in Escherichia coli expression system as substrate by substrate by fluorescence based Dixon plot. The conditions noted are these: time 2-4 hrs.
Target sequence in this assay (P22894 101-467 limits assumed): as the sequence (P22894 101-467 limits assumed) above
Data set [16] is described as follows: Neuroprotective activity against H2O2-induced lipid peroxidation in mouse SN-56 cells assessed as increase in MDA level at 1 to 150 uM incubated for 24 hrs by lipid peroxidation MDA assay kit method relative to control. In kind it is functional. As to conditions: dose 1-150 µM.
Data set [17] deals with T1, Matrix metalloproteinase-9. Briefly: Inhibition of recombinant human MMP9 (107 to 449 residues) using Mca-Pro-Leu-Gly-Leu-Dpa-Ala-Arg-NH2 expressed in Escherichia coli expression system as substrate incubated for 15 mins followed by substrate addition and measured after 2 to 4 hrs by fluorescence based assay.
Data set [18] is described as follows: Cytotoxicity against mouse SN-56 cells assessed as reduction in cell viability upto 100 uM incubated for 24 hrs by MTT assay. In kind it is cell-based. As to conditions: sn-56, 24 h. On the technique in general: Tetrazolium assays rely on reduction of a dye to a coloured formazan, in cell work by metabolically active cells.
In data set [19] the target is T4, Collagenase 3. Briefly: Non-competitive inhibition of recombinant human MMP13 (104 to 274 residues) using Mca-Pro-Leu-Gly-Leu-Dpa-Ala-Arg-NH2 expressed in Escherichia coli expression system as substrate by fluorescence based Dixon plot assay. The conditions noted are these: time 2-4 hrs.
Data set [20] has as its target T2, Neutrophil collagenase. The data set can be described thus: Non-competitive inhibition of recombinant human MMP8 (99 to 269 residues) using Mca-Pro-Leu-Gly-Leu-Dpa-Ala-Arg-NH2 expressed in Escherichia coli expression system as substrate by substrate by fluorescence based Michaelis-Menten analysis. The conditions noted are these: time 2-4 hrs.
Target sequence in this assay (P22894 101-467 limits assumed): as above
The target of data set [21] is T2, Neutrophil collagenase. The data set can be described thus: Inhibition of recombinant human MMP8 (99 to 269 residues) using Mca-Pro-Leu-Gly-Leu-Dpa-Ala-Arg-NH2 expressed in Escherichia coli expression system as substrate incubated for 15 mins followed by substrate addition and measured after 2 to 4 hrs by fluorescence based assay.
Target sequence in this assay (P22894 whole entry, the tested form may be a part): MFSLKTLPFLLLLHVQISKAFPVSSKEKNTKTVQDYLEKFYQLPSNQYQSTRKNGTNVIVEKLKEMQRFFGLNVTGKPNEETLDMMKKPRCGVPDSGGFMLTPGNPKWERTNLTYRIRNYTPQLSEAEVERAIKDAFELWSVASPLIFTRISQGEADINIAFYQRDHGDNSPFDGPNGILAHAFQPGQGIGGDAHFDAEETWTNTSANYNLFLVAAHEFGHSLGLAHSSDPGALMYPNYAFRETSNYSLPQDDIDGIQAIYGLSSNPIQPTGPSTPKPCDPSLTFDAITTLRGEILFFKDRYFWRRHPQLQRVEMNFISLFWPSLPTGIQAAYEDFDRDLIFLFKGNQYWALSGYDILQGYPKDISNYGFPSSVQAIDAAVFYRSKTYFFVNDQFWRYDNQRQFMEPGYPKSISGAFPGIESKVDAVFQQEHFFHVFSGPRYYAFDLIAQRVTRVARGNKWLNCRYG
Data set [22] has as its target T3, 72 kDa type IV collagenase. Briefly: Inhibition of recombinant human MMP2 (110 to 452 residues) using Mca-Pro-Leu-Gly-Leu-Dpa-Ala-Arg-NH2 expressed in yeast expression system as substrate incubated for 15 mins followed by substrate addition and measured after 2 to 4 hrs by fluorescence based assay.
Target sequence in this assay (P08253 whole entry, the tested form may be a part): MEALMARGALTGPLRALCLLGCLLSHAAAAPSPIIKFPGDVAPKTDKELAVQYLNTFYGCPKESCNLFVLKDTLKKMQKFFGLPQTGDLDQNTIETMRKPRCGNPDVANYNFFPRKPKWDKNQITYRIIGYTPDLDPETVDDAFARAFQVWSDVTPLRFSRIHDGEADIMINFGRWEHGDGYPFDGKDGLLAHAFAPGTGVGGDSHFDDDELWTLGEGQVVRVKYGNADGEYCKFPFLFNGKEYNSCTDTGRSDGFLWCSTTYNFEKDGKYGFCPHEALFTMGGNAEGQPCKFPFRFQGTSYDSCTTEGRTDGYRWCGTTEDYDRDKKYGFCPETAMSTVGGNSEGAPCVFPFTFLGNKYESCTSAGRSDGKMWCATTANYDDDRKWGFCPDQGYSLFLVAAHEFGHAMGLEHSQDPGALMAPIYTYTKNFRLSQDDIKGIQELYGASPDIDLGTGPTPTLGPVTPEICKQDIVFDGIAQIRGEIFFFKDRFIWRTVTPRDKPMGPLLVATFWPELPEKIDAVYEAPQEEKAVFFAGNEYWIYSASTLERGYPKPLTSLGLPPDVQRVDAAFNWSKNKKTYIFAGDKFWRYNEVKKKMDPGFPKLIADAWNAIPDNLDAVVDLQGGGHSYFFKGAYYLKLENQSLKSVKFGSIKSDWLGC
For data set [23], the target named is T4, Collagenase 3. The data set can be described thus: Non-competitive inhibition of recombinant human MMP13 (104 to 274 residues) using Mca-Pro-Leu-Gly-Leu-Dpa-Ala-Arg-NH2 expressed in Escherichia coli expression system as substrate by fluorescence based Michaelis-Menten analysis assay. As to conditions: time 2-4 hrs.
Data set [24] deals with T4, Collagenase 3. Briefly: Non-competitive inhibition of recombinant human MMP13 (104 to 274 residues) using Mca-Pro-Leu-Gly-Leu-Dpa-Ala-Arg-NH2 expressed in Escherichia coli expression system as substrate incubated for 15 mins followed by substrate addition and measured after 2 to 4 hrs by fluorescence based assay. The conditions noted are these: time 2-4.25 hrs.

Calls of active or inactive are those of the source. The rule behind the calls is not given here.

T1 sequence (P14780 whole entry, the tested form may be a part): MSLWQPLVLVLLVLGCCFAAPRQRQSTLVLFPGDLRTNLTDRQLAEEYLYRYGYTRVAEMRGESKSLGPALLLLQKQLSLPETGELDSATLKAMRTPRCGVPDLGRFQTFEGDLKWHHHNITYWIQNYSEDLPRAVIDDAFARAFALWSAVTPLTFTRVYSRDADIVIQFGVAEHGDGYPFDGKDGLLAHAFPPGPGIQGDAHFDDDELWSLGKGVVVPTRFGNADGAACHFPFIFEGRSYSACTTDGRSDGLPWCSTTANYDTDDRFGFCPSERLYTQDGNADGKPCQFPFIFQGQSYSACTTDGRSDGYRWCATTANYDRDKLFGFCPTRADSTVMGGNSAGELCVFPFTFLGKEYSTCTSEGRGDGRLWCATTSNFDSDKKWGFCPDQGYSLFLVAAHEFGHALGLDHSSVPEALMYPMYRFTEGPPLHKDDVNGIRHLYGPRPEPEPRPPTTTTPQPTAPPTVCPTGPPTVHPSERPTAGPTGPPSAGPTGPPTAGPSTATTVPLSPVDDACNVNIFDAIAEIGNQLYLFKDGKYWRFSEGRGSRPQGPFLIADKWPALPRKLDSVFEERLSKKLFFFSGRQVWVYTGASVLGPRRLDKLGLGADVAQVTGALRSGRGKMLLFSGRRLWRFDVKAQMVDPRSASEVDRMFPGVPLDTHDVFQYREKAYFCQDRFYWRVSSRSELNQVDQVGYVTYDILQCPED

As to `COc1ccc(Nc2cc(-c3cccs3)cc3c2c(=O)[nH]c2ccccc23)cc1`, the inhibition result (in data set [1]; in data set [8]; on Neutrophil collagenase [13]; on Collagenase 3 [24]) was “Active” throughout. Moreover, the result (on Neutrophil collagenase [2]; in the data set on SN-56 [3]; in data set [4]; in [5]; in [6]; at Collagenase 3 [7]) was Active. In addition, the outcome (in data set [9]; in [11]; in [14]; at Neutrophil collagenase [15]; on Collagenase 3 [19]; at Neutrophil collagenase [20]) was Active. Also, the outcome at Collagenase 3 [23] was Active. In addition, the Activity result was “Dose-dependent effect” with SN-56 [10], 100% in data set [16] and “Non-Toxic” in data set [18]. The IC50 (usually the midpoint of a concentration-inhibition curve) on Collagenase 3 [12] came to 5.4 µM; in data set [17] it was 5 µM; at Neutrophil collagenase [21] it was 7 µM; in data set [22] it was 6.05 µM.
